Square brackets hold non-standard residues; d marks the D form. Peptide text beside a SMILES is read from it. * marks the point of attachment. Sta = CC(C)C[C@H](N)[C@@H](O)CC(=O)O; Isovaleryl = CC(C)CC(=O)*

Chain of plasmepsin II (P46925 125-453): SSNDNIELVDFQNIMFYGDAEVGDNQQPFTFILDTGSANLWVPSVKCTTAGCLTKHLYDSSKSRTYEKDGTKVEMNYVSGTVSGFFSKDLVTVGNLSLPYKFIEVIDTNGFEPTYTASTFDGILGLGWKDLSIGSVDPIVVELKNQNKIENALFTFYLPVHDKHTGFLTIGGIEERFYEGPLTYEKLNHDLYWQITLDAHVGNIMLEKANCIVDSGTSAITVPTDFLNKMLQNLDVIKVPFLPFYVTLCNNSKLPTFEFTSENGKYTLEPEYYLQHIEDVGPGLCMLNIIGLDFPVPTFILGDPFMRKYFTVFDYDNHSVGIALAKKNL

The first test concerns the target plasmepsin II (Plasmodium falciparum, UniProt P46925). Description: FRET assay for plasmepsin II. It is filed as biochemical. Conditions: pH 5, 37° C., 40 min, substrate 1 μM. The method, then:
The fluorescence resonance energy transfer (FRET) assay for HIV, plasmepsin II, human cathepsin D and human cathepsin E.
The assay conditions were selected according, to reports in the literature. The FRET assay was performed in white polysorp plates (Fluoronunc, cat n° 437842 A). The assay buffer consisted of 50 mM Na acetate pH 5, 12,5% glycerol, 0.1% BSA+392 mM NaCl (for HIV-protease). The incubates per well were composed of:
10 μl inhibitor (in DMSO)
10 μl of the corresponding substrate in DMSO (see table A) to a final concentration of 1 μM
20 μl of enzyme to a final amount of x ng per assay tube (x=10 ng/assay tube plasmepsin II, x=100 ng/assay tube HIV-protease, x=10 ng/assay tube human cathepsin E and x=20 ng/assay tube human cathepsin D)
The reactions were initiated by addition of the enzyme. The assay was incubated at 37° C. for 30 min (for human cathepsin E), 40 min (for plasmepsin II and HIV-protease) or 120 min (for human cathepsin D). The reactions were stopped by adding 10% (v/v) of a 1 M solution of Tris-base. Product-accumulation was monitored by measuring the fluorescence at 460 nm.
Auto-fluorescence of all the test substances is determined in assay buffer in the absence of substrate and enzyme and this value was subtracted from the final signal.
What is called IC50 is the concentration that inhibits the measured activity by half. Low readings indicate greater potency in that assay, high ones weaker potency in that assay. Take `CCCCCc1ccc(C(=O)N(CCN(CCCC)CCCC)Cc2ccc(OCc3ccccc3)cc2)cc1` [Example 1]: the IC50 came to 115 nM.
Still for that read-out and setting: as for `CCCCCc1ccc(CN(CCN(CCCC)CCCC)Cc2ccc(OCc3ccccc3)cc2)cc1` [Example 20], the figure is 846 nM; as for `CCCCCc1ccc(C(=O)N(CCN(CCCC)CCCC)Cc2ccc(Oc3ccccc3)cc2)cc1` [Example 21], 469 nM.
The compound `CCCCCc1ccc(C(=O)N(CCN(CCCC)CCCC)Cc2ccc(OCc3ccccc3)c(OCc3ccccc3)c2)cc1` [Example 22] yielded an IC50 of 858 nM.
Still for that read-out and setting: under `CCCCCc1ccc(C(=O)N(CCN(CCCC)CCCC)Cc2ccc(-c3ccccc3)cc2)cc1` [Example 23] stands 252 nM; under `CCCCCc1ccc(C(=O)N(CCN(CCCC)CCCC)Cc2ccc(C(F)(F)F)cc2)cc1` [Example 25], 596 nM; under `CCCCCc1ccc(C(=O)N(CCN(CCCC)CCCC)Cc2ccc(OCCCC)cc2)cc1` [Example 38], 325 nM.
Consider `CCCCCc1ccc(C(=O)N(CCCN(CCCC)CCCC)Cc2ccc(OCc3ccccc3)cc2)cc1` [Example 51], for which 691 nM corresponded to half-maximal inhibition (IC50).
The same measure, in the same setting: under `CCCCCc1ccc(C(=O)N(CCCN(CCCC)CCCC)Cc2ccc(-c3ccccc3)cc2)cc1` [Example 52] stands 834 nM; under `CCCCCc1ccc(C(=O)N(CCN(CCCC)CCCC)Cc2ccc(-c3ccc(OCCO)cc3)cc2)cc1` [Example 53], 125 nM; under `CCCCCc1ccc(C(=O)N(CCN(CCCC)CCCC)Cc2ccc(-c3ccccc3F)cc2)cc1` [Example 54], 312 nM.
The same measure, in the same setting: under `CCCCCc1ccc(C(=O)N(CCN(CCCC)CCCC)Cc2ccc(-c3ccccc3Cl)cc2)cc1` [Example 56] stands 659 nM; under `CCCCCc1ccc(C(=O)N(CCN(CCCC)CCCC)Cc2ccc(-c3cncnc3)cc2)cc1` [Example 57], 351 nM; under `CCCCCc1ccc(C(=O)N(CCN(CCCC)CCCC)Cc2ccc(-c3cccc(OC(F)(F)F)c3)cc2)cc1` [Example 58], 754 nM.
Consider `CCCCCc1ccc(C(=O)N(CCN(CCCC)CCCC)Cc2ccc(-c3ccccn3)cc2)cc1` [Example 59], for which the IC50 came out at 380 nM.
Consider `CCCCCc1ccc(C(=O)N(CCN(CCCC)CCCC)Cc2ccc(-c3ccc(CC(=O)OC)cc3)cc2)cc1` [Example 60], for which the IC50 was found to be 198 nM.
Still for that read-out and setting: as for `CCCCCc1ccc(C(=O)N(CCN(CCCC)CCCC)Cc2ccc(-c3ccc4c(c3)OCO4)cc2)cc1` [Example 61], the figure is 57 nM.
Turning to `CCCCCc1ccc(CN(CCN(CCCC)CCCC)Cc2ccc(-c3ccc(C#N)cc3)cc2)cc1` [Example 68], half-maximal inhibition (IC50) required 714 nM.
On the same count and under the same terms, under `CCCCCc1ccc(C(=O)N(CCN(CCO)CCO)Cc2ccc(OCC)cc2)cc1` [Example 69] stands 8230 nM.

The next test relates to P. falciparum.
Assay: not given
As to conditions: cited from earlier work.
As for `CC(C)CC(=O)N[C@H](C(=O)N[C@H](C(=O)N[C@@H](CC(C)C)[C@@H](O)CC(=O)N[C@@H](C)C(=O)N[C@@H](CC(C)C)[C@@H](O)CC(=O)O)C(C)C)C(C)C` [Pepstatin] (Isovaleryl-VV[Sta]A[Sta]-OH), the “growth of P. falciparum in red blood cells in vitro” value is “inhibits the growth”.

The values above are taken from patent US20040067927A1, “Substituted alkyldiamines” (priority 2003, published 2004).
